Measurements from patent US9751867B2 (Syngenta Participations AG, priority 2014, dated 2017).
Like-named read-outs stand apart in the source and are kept apart here.

Assays:
[1] = system: Orobanche cumana Wallr. seeds; assay: Orobanche seed germination; format: in vivo; settings: preconditioned O. cumana seeds, 10 days at 20° C. in the dark, N = 5 × 100 seeds, control (0.01% DMSO) 0.75% germination
Method: The effect of the compounds of Formula (I) on the germination of Orobanche cumana Wallr. seeds was evaluated on glass fibre filter paper (GFFP) in petri dishes. Seeds were pre-conditioned at moisture and suitable temperature to become responsive to the specific chemical germination stimulants.
Test compounds were dissolved in DMSO (10 000 mgl^−1) and stored at room temperature in a desiccator with desiccants. The stock solutions were dissolved with sterile deionised water to the appropriate final test concentration.
Seeds of O. cumana race ‘F’ were collected from sunflower fields in Manzanilla (Seville, Spain) in 2008 (seed lot IN153) and stored at room temperature. To separate seeds from heavy organic debris, a modified sucrose floatation technique as described by Hartman & Tanimonure (Plant Disease (1991), 75, 494) was applied. Seeds were filled into a separation funnel and stirred in water. When seeds floated to the surface, the water fraction containing heavy debris was discarded. Seeds were re-suspended in 2.5 M sucrose solution (specific gravity of 1.20) and heavy debris was allowed to settle down for 60 minutes. After removing debris, seeds were disinfected in 1% sodium hypochlorite solution and 0.025% (v/v) Tween 20 for 2 minutes. The seeds were decanted onto two layers of cheese cloth, rinsed with sterile deionised water and re-suspended in sterile deionised water. 2 mL of the seed suspension containing approximately 150 to 400 seeds was spread evenly on two layers of sterile glass fiber filter paper disc ([…]) in Petri dishes ( ? 9 cm). After wetting the discs with 3 mL sterile deionised water, petri dishes were sealed with parafilm. Seeds were incubated for 10 days at 20° C. in the dark for seed conditioning. The upper disc with conditioned seeds was briefly dried, transferred to a petri dish lined with a dry GFFP disc, and wetted with 6 mL of the appropriate test solution. The compounds of Formula (I) were tested at concentrations of 0.01, 0.1, and 1 mg/L. The strigolactone analogue GR24 (commercially available as a mixture of isomers) was included as positive control and 0.01% DMSO as negative control. All treatments were tested in five replicates. Seeds were re-incubated at 20° C. in the dark and examined for germination 10 days later.
The radicles of germinated seeds were stained for 5 minutes with blue ink (PELIKAN #4001, Germany) in 5% acetic acid according to Long et al (Seed Science Research (2008), 18, 125). After staining, seeds were photographed using a camera stand mounted with a digital SLR camera (Canon EOS 5D). Germination of 100 seeds per replicate was evaluated on digital images. Seeds were considered germinated when the radicle protruded from the seed coat.

NK Falkone corn seeds = assay: Corn seed germination under cold stress (15° C.); format: in vivo; settings: for change in vivo at 50 µM: rate 50 μM; for change in vivo at 250 µM: rate 250 μM
Method: The effect of compounds of Formula (I) on the germination of NK Falkone corn seeds under cold stress was evaluated as follows.
NK Falkone corn seeds were sorted by size using 2 sieves, one excluding very big seeds and the other with round holes of 8 to 9 mm diameter. The seeds retained by the latter sieve are used for the germination test.
The corn seeds were placed in 24 well plates (each plate is considered as one experimental unit or replicate). Germination is initiated by the addition of 250 μl of distilled water containing 0.5% DMSO per well as a mean for compound solubilization. 8 replicates (ie, 8 plates) were used for each treatment characterization. Plates were sealed using seal foil (Polyolefin Art. Nr. 900320) from HJ-BIOANALYTIK. All plates were placed horizontally on trolleys in a climatic chamber at 15° C. or 23° C. in complete darkness. The experiment is laid out in a completely randomized design in climatic chamber with 75% Relative Humidity. Foils are pierced, one hole per well using a syringe after 72 hours for experiments performed at 15° C. and after 24 hours for experiments performed at 23° C.
Germination is followed over time by taking photographs at different time points. Image analysis is done automatically with a macro developed using the Image J software. A dynamic analysis of germination is carried out by fitting a logistic curve to the relationship between % germination and time for each plate (T50 parameter).
T50 is the time needed for half the seed population to be germinated. A negative value of T50 represents a faster germination rate. The mean of T50 parameters is calculated for the 8 replicates and the kinetic parameter is determined for each germination curve. Data in bold indicate germination enhancing statistically significant differences between treated seeds and control (empty vehicle treated) T50 values (P<0.05) as outlined in Table 7.

[2] = Zea mays, rate 2 μM, 15° C., negative value = faster germination, control 0.5% DMSO in water, read-out: T50 (% vs control)
[3] = Zea mays, rate 10 μM, 15° C., negative value = faster germination, control 0.5% DMSO in water, read-out: T50 (% vs control)
[4] = Zea mays, 15° C., negative value = faster germination, control 0.5% DMSO in water, read-out: T50 (% vs control)
[5] = Zea mays, rate 1 μM, 15° C., negative value = faster germination, control 0.5% DMSO in water, read-out: T50 (% vs control)
[6] = Zea mays, rate 5 μM, 15° C., negative value = faster germination, control 0.5% DMSO in water, read-out: T50 (% vs control)
[7] = Zea mays, rate 25 μM, 15° C., negative value = faster germination, control 0.5% DMSO in water, read-out: T50 (% vs control)
[8] = Zea mays, read-out: T50 (% vs control)

| SMILES | Germination (%) ([1]; 0.01 mg/L) | Germination (%) ([1]; 0.1 mg/L) | change in vivo at 2 µM (NK Falkone corn seeds; [2]) [%] | change in vivo at 10 µM (NK Falkone corn seeds; [3]) [%] | change in vivo at 50 µM (NK Falkone corn seeds; [4]) [%] | change in vivo at 250 µM (NK Falkone corn seeds; [4]) [%] | other results |
| --- | --- | --- | --- | --- | --- | --- | --- |
| CC1=CC(O/C=C2/C(=O)NC3c4ccccc4CC23)N(C2CC2)C1=O (centres unmarked) [Ib-5, (3E)-3-[(4-methyl-5-oxo-1-cyclopropyl-2H-pyrrol-2-yl)oxymethylene]-1,3a,4,8b-tetrahydroindeno[1,2-b]pyrrol-2-one] | 68 | 73 | -0.8 | -4.3 | -3.9 | -5.8 | – |
| CC1=CC(O/C=C2/C(=O)NC3c4ccccc4CC23)N(c2ccc(F)cc2)C1=O (centres unmarked) [Ib-8, (3E)-3-[(4-methyl-5-oxo-1-(4-fluoro-phenyl)-2H-pyrrol-2-yl)oxymethylene]-1,3a,4,8b-tetrahydroindeno[1,2-b]pyrrol-2-one] | – | – | – | – | – | – | change in vivo at 1 µM (NK Falkone corn seeds; [5]): -2.6%; change in vivo at 5 µM (NK Falkone corn seeds; [6]): -2.8%; change in vivo at 25 µM (NK Falkone corn seeds; [7]): 2%; change in vivo at 125 µM (NK Falkone corn seeds; Zea mays, rate 125 μM, 15° C., negative value = faster germination, control 0.5% DMSO in water, read-out: T50 (% vs control)): -2.3% |
| CC1=CC(O/C=C2/C(=O)NC3c4ccccc4CC23)N(c2ccccc2)C1=O (centres unmarked) [Ib-2, (3E)-3-[(4-methyl-5-oxo-1-phenyl-2H-pyrrol-2-yl)oxymethylene]-1,3a,4,8b-tetrahydroindeno[1,2-b]pyrrol-2-one] | – | – | -2.5 | -6.1 | -6.2 | – | change in vivo at 0.4 µM (NK Falkone corn seeds; Zea mays, rate 0.4 μM, 15° C., negative value = faster germination, control 0.5% DMSO in water, read-out: T50 (% vs control)): -0.4% |
| CON1C(=O)C(C)=CC1O/C=C1/C(=O)NC2c3ccccc3CC12 (centres unmarked) [Ib-3, (3E)-3-[(4-methyl-5-oxo-1-methoxy-2H-pyrrol-2-yl)oxymethylene]-1,3a,4,8b-tetrahydroindeno[1,2-b]pyrrol-2-one] | – | – | -4 | 3.4 | -3.8 | -5.5 | – |
| CC1=CC(O/C=C2/C(=O)NC3c4ccccc4CC23)N(CC(F)(F)F)C1=O (centres unmarked) [Ib-7, (3E)-3-[(4-methyl-5-oxo-1-(2,2,2-trifluoroethyl)-2H-pyrrol-2-yl)oxymethylene]-1,3a,4,8b-tetrahydroindeno[1,2-b]pyrrol-2-one] | 46 | 26 | 1.5 | -3 | -3.3 | -4.5 | – |
| CC1=C[C@H](O/C=C2/C(=O)O[C@@H]3c4ccccc4C[C@H]23)OC1=O [GR-24, reference compound] | – | – | – | – | – | – | T50 (% vs control) (NK Falkone corn seeds; rate 0.08 μM, 15° C., negative value = faster germination, control 0.5% DMSO in water): 0.1 % vs control; T50 (% vs control) (NK Falkone corn seeds; rate 0.4 μM, 15° C., negative value = faster germination, control 0.5% DMSO in water): −2 % vs control; T50 (% vs control) (NK Falkone corn seeds; rate 2 μM, 15° C., negative value = faster germination, control 0.5% DMSO in water): −0.6 % vs control; T50 (% vs control) (NK Falkone corn seeds; rate 10 μM, 15° C., negative value = faster germination, control 0.5% DMSO in water): −2.4 % vs control |
| CC1=CC(O/C=C2/C(=O)N(C(=O)OC(C)(C)C)C3c4ccccc4CC23)N(CC(F)(F)F)C1=O (centres unmarked) [Ia-7, tert-butyl (3E)-3-[(4-methyl-5-oxo-1-(2,2,2-trifluoroethyl)-2H-pyrrol-2-yl)oxymethylene]-2-oxo-4,8b-dihydro-3aH-indeno[1,2-b]pyrrole-1-carboxylate] | 34 | 8 | – | – | – | – | – |
| CC1=CC(O/C=C2/C(=O)NC3c4ccccc4CC23)N(c2cc(C(F)(F)F)cc(C(F)(F)F)c2)C1=O (centres unmarked) [Ib-13, (3E)-3-[(4-methyl-5-oxo-1-(3,5-bistrifluoromethyl-phenyl)-2H-pyrrol-2-yl)oxymethylene]-1,3a,4,8b-tetrahydroindeno[1,2-b]pyrrol-2-one] | – | – | – | – | – | – | change in vivo at 0.2 µM (NK Falkone corn seeds; [8]): 1%; change in vivo at 1 µM (NK Falkone corn seeds; [8]): -3.6%; change in vivo at 5 µM (NK Falkone corn seeds; [8]): -3.6%; change in vivo at 25 µM (NK Falkone corn seeds; [8]): -2.7% |
| CC1=CC(O/C=C2/C(=O)NC3c4ccccc4CC23)N(c2cccc(F)c2)C1=O (centres unmarked) [Ib-9, (3E)-3-[(4-methyl-5-oxo-1-(3-fluoro-phenyl)-2H-pyrrol-2-yl)oxymethylene]-1,3a,4,8b-tetrahydroindeno[1,2-b]pyrrol-2-one] | – | – | – | – | – | – | change in vivo at 0.2 µM (NK Falkone corn seeds; Zea mays, rate 0.2 μM, 15° C., negative value = faster germination, control 0.5% DMSO in water, read-out: T50 (% vs control)): -0.8%; change in vivo at 1 µM (NK Falkone corn seeds; [5]): -4.8%; change in vivo at 5 µM (NK Falkone corn seeds; [6]): -5.6%; change in vivo at 25 µM (NK Falkone corn seeds; [7]): -5.2% |
